Measurements as given in patent publication US7041677B2, “Use of monochloroflosequinan in the treatment of sexual dysfunction” (R.T. Alamo Ventures I, LLC, priority 2002, dated 2006).

What was measured:
PDE3 = biological target: T1, PDE3 (Homo sapiens, UniProt Q14432); experiment: PDE3 enzyme inhibition assay; type: biochemical; settings: 1% DMSO vehicle
T1 construct: PDE3 partially purified from human platelets was used; from tissue; host or cells: human platelets
Source text: In this example, a racemic mixture of monochloroflosequinan and the sulfone derivative of monochloroflosequinan were independently subjected to biochemical enzyme assays to determine their respective percent inhibition of a variety of phosphodiesterases (PDE1-PDE6). The methods used have been adapted from those described in the scientific literature, see Hidaka and Asano “Human blood platelet 3′:5′ cyclic nucleotide phosphodiesterase. Isolation of low-Km and high Km phosphodiesterase.” Biochem. Biophys. Acta 429:485 (1976); Nicholoson et al. “Differential modulation of tissue function and therapeutic potential of selective inhibitors of cyclic nucleotide phosphodiesterase isoenzymes” Trends Pharmacol. Sci. 12:19 (1991); Cortijo et al. “Investigation into the role of phosphodiesterase IV in bronchorelaxation, including studies with hyman bronchus.” Br. J. Pharmacol. 108:562 (1993); Baehr et al. “Isolation and characterization of cGMP phosphodiesterase from bovine rod outer segments.” J. Biol. Chem. 254:11669 (1979) and Gillespie and Beavo “Inhibition and stimulation of photoreceptor phosphodiesterase by dipyridamole and M&B 22,948” Molecular Pharm. 36:773 (1989). A brief summary of the conditions for each enzyme assay is provided below: • PDE1: PDE1 partially purified from bovine heart was used. The compounds were independently incubated with 13 μg PDE1 enzyme, 1.01 μM [^3H]cAMP+cAMP and CaCl2/calmodulin in Tris buffer pH 7.5 for 20 minutes at either 25° C. or 30° C. The reaction was terminated by boiling for 2 minutes, and the resulting AMP was converted to adenosine by addition of 10 mg/ml snake venom nucleotidase and further incubation at 30° C. for 10 minutes. Unhydrolyzed cAMP was bound to AGI-X2 resin, and the remaining [^3H]adenosine in the aqueous phase was quantitated by scintillation counting. • PDE2: PDE2 partially purified from human platelets was used. The compounds were independently incubated with 23 μg PDE2 enzyme, 25.1 μM [^3H]cAMP+cAMP in Tris buffer pH 7.5 for 20 minutes at either 25° C. or 30° C. […] Unhydrolyzed cAMP was bound to AGI-X2 resin, and the remaining [^3H]adenosine in the aqueous phase was quantitated by scintillation counting. • PDE3: PDE3 partially purified from human platelets was used. […] Unhydrolyzed cAMP was bound to AGI-X2 resin, and the remaining [^3H]adenosine in the aqueous phase was quantitated by scintillation counting. • PDE4: PDE4 partially purified from human U-937 pronocytic cells was used. […] Unhydrolyzed cAMP was bound to AGI-X2 resin, and the remaining [^3H]adenosine in the aqueous phase was quantitated by scintillation counting. • PDE5: PDE5 partially purified from human platelets was used. […]

PDE2 = biological target: T2, PDE2 (Homo sapiens, UniProt O00408); experiment: PDE2 enzyme inhibition assay; type: biochemical; settings: 1% DMSO vehicle
T2 construct: PDE2 partially purified from human platelets was used; from tissue; host or cells: human platelets
Source text: (§1) In this example, a racemic mixture of monochloroflosequinan and the sulfone derivative of monochloroflosequinan were independently subjected to biochemical enzyme assays to determine their respective percent inhibition of a variety of phosphodiesterases (PDE1-PDE6). The methods used have been adapted from those described in the scientific literature, see Hidaka and Asano “Human blood platelet 3′:5′ cyclic nucleotide phosphodiesterase. Isolation of low-Km and high Km phosphodiesterase.” Biochem. Biophys. […] Unhydrolyzed cAMP was bound to AGI-X2 resin, and the remaining [^3H]adenosine in the aqueous phase was quantitated by scintillation counting. • PDE2: PDE2 partially purified from human platelets was used. […] Unhydrolyzed cAMP was bound to AGI-X2 resin, and the remaining [^3H]adenosine in the aqueous phase was quantitated by scintillation counting. • PDE3: PDE3 partially purified from human platelets was used. […] Unhydrolyzed cAMP was bound to AGI-X2 resin, and the remaining [^3H]adenosine in the aqueous phase was quantitated by scintillation counting. • PDE4: PDE4 partially purified from human U-937 pronocytic cells was used. […] Unhydrolyzed cAMP was bound to AGI-X2 resin, and the remaining [^3H]adenosine in the aqueous phase was quantitated by scintillation counting. • PDE5: PDE5 partially purified from human platelets was used. […]

PDE1 = biological target: T3, PDE1 (Bos taurus, UniProt P14100); experiment: PDE1 enzyme inhibition assay; type: biochemical, bovine; settings: 1% DMSO vehicle
T3 construct: PDE1 partially purified from bovine heart was used; from tissue; host or cells: bovine heart
Source text: In this example, a racemic mixture of monochloroflosequinan and the sulfone derivative of monochloroflosequinan were independently subjected to biochemical enzyme assays to determine their respective percent inhibition of a variety of phosphodiesterases (PDE1-PDE6). The methods used have been adapted from those described in the scientific literature, see Hidaka and Asano “Human blood platelet 3′:5′ cyclic nucleotide phosphodiesterase. Isolation of low-Km and high Km phosphodiesterase.” Biochem. Biophys. Acta 429:485 (1976); Nicholoson et al. “Differential modulation of tissue function and therapeutic potential of selective inhibitors of cyclic nucleotide phosphodiesterase isoenzymes” Trends Pharmacol. Sci. 12:19 (1991); Cortijo et al. “Investigation into the role of phosphodiesterase IV in bronchorelaxation, including studies with hyman bronchus.” Br. J. Pharmacol. 108:562 (1993); Baehr et al. “Isolation and characterization of cGMP phosphodiesterase from bovine rod outer segments.” J. Biol. Chem. 254:11669 (1979) and Gillespie and Beavo “Inhibition and stimulation of photoreceptor phosphodiesterase by dipyridamole and M&B 22,948” Molecular Pharm. 36:773 (1989). A brief summary of the conditions for each enzyme assay is provided below: • PDE1: PDE1 partially purified from bovine heart was used. The compounds were independently incubated with 13 μg PDE1 enzyme, 1.01 μM [^3H]cAMP+cAMP and CaCl2/calmodulin in Tris buffer pH 7.5 for 20 minutes at either 25° C. or 30° C. The reaction was terminated by boiling for 2 minutes, and the resulting AMP was converted to adenosine by addition of 10 mg/ml snake venom nucleotidase and further incubation at 30° C. for 10 minutes. Unhydrolyzed cAMP was bound to AGI-X2 resin, and the remaining [^3H]adenosine in the aqueous phase was quantitated by scintillation counting. • PDE2: PDE2 partially purified from human platelets was used. The compounds were independently incubated with 23 μg PDE2 enzyme, 25.1 μM [^3H]cAMP+cAMP in Tris buffer pH 7.5 for 20 minutes at either 25° C. or 30° C. The reaction was terminated by boiling for 2 minutes, and the resulting AMP was converted to adenosine by addition of 10 mg/ml snake venom nucleotidase and further incubation at 30° C. for 10 minutes. Unhydrolyzed cAMP was bound to AGI-X2 resin, and the remaining [^3H]adenosine in the aqueous phase was quantitated by scintillation counting. • PDE3: PDE3 partially purified from human platelets was used. The compounds were independently incubated with 13 ug PDE3 enzyme and 1.01 μM [^3H]cAMP+cAMP in Tris buffer pH 7.5 for 20 minutes at either 25° C. or 30° C. The reaction was terminated by boiling for 2 minutes, and the resulting AMP was converted to adenosine by addition of 10 mg/ml snake venom nucleotidase and further incubation at 30° C. for 10 minutes. Unhydrolyzed cAMP was bound to AGI-X2 resin, and the remaining [^3H]adenosine in the aqueous phase was quantitated by scintillation counting. • PDE4: PDE4 partially purified from human U-937 pronocytic cells was used. The compounds were independently incubated with 20 μg PDE4 enzyme and 1.01 μM [^3H]cAMP+cAMP in Tris buffer pH 7.5 for 20 minutes at either 25° C. or 30° C. […] Unhydrolyzed cAMP was bound to AGI-X2 resin, and the remaining [^3H]adenosine in the aqueous phase was quantitated by scintillation counting. • PDE5: PDE5 partially purified from human platelets was used. […]

PDE5 = biological target: T4, PDE5 (Homo sapiens, UniProt O76074); experiment: PDE5 enzyme inhibition assay; type: biochemical; settings: 25° C., 1% DMSO vehicle
T4 construct: PDE5 partially purified from human platelets was used; from tissue; host or cells: human platelets
Source text: as §1

T1 sequence (Q14432 whole entry): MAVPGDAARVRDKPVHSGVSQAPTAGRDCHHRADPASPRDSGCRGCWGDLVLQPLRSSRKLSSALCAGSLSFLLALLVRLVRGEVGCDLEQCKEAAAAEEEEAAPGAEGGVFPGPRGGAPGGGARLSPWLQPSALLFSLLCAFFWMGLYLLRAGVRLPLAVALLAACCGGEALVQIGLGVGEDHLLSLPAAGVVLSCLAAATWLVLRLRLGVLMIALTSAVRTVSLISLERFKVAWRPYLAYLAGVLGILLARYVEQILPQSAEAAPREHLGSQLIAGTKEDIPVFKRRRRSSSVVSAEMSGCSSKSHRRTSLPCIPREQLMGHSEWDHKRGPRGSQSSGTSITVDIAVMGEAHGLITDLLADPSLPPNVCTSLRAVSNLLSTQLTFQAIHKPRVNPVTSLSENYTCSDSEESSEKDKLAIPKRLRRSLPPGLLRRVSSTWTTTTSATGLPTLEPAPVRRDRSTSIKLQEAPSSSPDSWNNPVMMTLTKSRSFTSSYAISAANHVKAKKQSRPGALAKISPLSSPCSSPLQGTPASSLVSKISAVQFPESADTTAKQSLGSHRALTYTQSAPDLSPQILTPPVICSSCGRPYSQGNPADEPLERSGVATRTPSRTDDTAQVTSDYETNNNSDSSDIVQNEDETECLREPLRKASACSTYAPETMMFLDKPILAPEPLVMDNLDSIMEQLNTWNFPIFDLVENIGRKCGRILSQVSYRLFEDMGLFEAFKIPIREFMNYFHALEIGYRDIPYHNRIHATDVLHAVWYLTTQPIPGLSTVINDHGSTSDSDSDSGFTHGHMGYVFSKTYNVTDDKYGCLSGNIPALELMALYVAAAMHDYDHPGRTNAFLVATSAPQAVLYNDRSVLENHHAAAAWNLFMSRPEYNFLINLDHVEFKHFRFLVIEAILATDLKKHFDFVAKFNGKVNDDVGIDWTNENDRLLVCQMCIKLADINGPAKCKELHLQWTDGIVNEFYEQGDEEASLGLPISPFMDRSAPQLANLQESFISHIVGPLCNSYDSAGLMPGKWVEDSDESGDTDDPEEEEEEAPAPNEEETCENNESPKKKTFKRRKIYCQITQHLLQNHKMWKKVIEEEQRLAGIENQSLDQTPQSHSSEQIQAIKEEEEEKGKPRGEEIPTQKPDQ
T2 sequence (O00408 whole entry): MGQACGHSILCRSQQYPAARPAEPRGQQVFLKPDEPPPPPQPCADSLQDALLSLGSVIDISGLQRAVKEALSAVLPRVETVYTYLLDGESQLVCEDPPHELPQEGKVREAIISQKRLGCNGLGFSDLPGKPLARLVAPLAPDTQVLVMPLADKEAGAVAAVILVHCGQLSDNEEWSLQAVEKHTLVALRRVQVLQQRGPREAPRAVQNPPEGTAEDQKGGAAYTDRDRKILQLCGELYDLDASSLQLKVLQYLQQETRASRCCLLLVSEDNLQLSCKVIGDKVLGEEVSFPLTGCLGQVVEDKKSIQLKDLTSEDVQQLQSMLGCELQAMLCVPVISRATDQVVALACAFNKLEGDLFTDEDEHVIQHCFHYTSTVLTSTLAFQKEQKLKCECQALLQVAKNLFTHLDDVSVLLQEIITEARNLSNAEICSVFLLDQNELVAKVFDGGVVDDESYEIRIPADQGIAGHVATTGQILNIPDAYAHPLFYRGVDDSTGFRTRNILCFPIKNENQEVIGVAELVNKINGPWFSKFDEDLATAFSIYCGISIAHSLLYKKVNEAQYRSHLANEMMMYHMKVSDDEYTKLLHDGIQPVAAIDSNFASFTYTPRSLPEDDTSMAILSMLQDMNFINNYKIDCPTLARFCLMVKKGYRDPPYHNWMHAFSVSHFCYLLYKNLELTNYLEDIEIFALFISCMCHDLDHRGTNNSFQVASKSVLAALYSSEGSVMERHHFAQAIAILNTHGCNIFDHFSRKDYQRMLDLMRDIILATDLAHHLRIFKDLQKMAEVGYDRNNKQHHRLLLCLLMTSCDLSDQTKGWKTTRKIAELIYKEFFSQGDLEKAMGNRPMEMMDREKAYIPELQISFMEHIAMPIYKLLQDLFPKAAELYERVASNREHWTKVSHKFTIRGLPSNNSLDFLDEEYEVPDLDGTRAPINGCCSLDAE

Cn1cc([S@+]([O-])CCl)c(=O)c2ccc(F)cc21 (single isomer, unassigned) [(+)-enantiomer of monochloroflosequinan]
inhibition of PDE3 (PDE3; 200 μM, 25° C.): greater than 50% | inhibition of PDE2 (PDE2; 200 μM, 25° C.): greater than 50% | inhibition of PDE1 (PDE1; 200 μM, 25° C.): greater than 50% | inhibition of PDE5 (PDE5; 200 μM): greater than 50%

Cn1cc([S+]([O-])C(Cl)Cl)c(=O)c2ccc(F)cc21 (stereo not drawn) [dichloroflosequinan, 3-dichloromethylsulfinyl-7-fluoro-1-methyl-4-quinolone]
inhibition of PDE3 (PDE3; varying concentrations, 25° C.): greater than 50% | inhibition of PDE1 (PDE1; varying concentrations, 25° C.): greater than 50% | inhibition of PDE5 (PDE5; varying concentrations): greater than 50%

Cn1cc([S+]([O-])CCl)c(=O)c2ccc(F)cc21 (racemic) [monochloroflosequinan, 3-chloromethylsulfinyl-7-fluoro-1-methyl-4-quinolone]
inhibition of PDE3 (PDE3; 100 uM, 30° C.): Significant inhibition | inhibition of PDE2 (PDE2; 100 uM, 30° C.): Significant inhibition | inhibition of PDE1 (PDE1; 100 uM, 30° C.): Significant inhibition

Cn1cc([S@@+]([O-])CCl)c(=O)c2ccc(F)cc21 (single isomer, unassigned) [(−)-enantiomer of monochloroflosequinan]
inhibition of PDE3 (PDE3; 200 μM, 25° C.): greater than 50% | inhibition of PDE1 (PDE1; 200 μM, 25° C.): greater than 50%
